Assay results from US20200325109A1, “IMINO-UREA DERIVATIVES” (Lunan Pharmaceutical Group Corporation, priority 2017, published 2020).
Where two headings read alike, the source gives them in different places. One block for each molecule: values may come before it.

Columns and labels:
[1] = target: T1, human indoleamine 2,3-dioxygenase (Homo sapiens, UniProt P14902); assay: Determination of the activity for inhibiting indoleamine 2,3-dioxygenase and IC50; assay type: biochemical; conditions: purified human IDO, 200 μM L-tryptophan, 37° C., 60 minutes, pH 6.5
T1 construct: made in house; host or cells: E. coli

[2] = test system: DC-stimulated T cell proliferation; assay: DC-stimulated T cell proliferation assay (MLR); assay type: cell-based, human; conditions: MTT, A570 nm, 72 hours
Protocol: The human peripheral blood leukocyte layer was taken and diluted with same volume of 0.01 mol/L PBS. PBMC was routinely isolated with a lymphocyte separation medium, and the cell concentration was adjusted to 3×10^6 ml^−1 in a complete RPMI1640 medium; the cells were added to a 6-well plate, 3 ml per well, and cultured in a 5% CO2, 37° C. incubator for 2 hours, washed with PBS for 3 times to remove non-adherent cells, then added with a culture medium containing IL-4 (100 U/ml), GM-CSF (150 ng/ml) and TNF-α (500 U/ml), and then routinely cultured, the medium was changed for half every other day. After 8 days of culture, the cells were used for identification and experiment.
The human PBMC layer was separated by the method in the step 1. The macrophages were removed by the adherence method, the B cells were removed by the nylon wool fiber syringe method, and the obtained T cells were adjusted to a cell concentration of 1×10^6 cells/ml.
The mature DCs with a purity of 99% were centrifuged, added with RPMI1640 to adjust the cell concentration to 1×10^5, 4×10^4, 2×10^4/ml, and added to a 96-well plate, two wells for each concentration, 100 μl/well.
T cells were added to DCs of each of the above drug-added groups, 100 μl/well, cultured in a 5% CO2, 37° C. incubator for 72 hours; for each well, 100 μl of the culture solution was gently sucked out 6 hours before the end of the culture, and 10 μl of MTT (5 mg/ml) was added, further cultured in incubator for 6 hours, then 100 μl of 0.01 mol/L HCl-10% SDS was added, stood at 37° C. overnight, and the absorbance value (A570 nm) was determined by a microplate to show the T cell proliferation level.

LLC tumors = assay: In vivo antitumor activity test, LLC tumors in mice; parameters: Tumor inhibition rate: concentration or dose not given beside the values; conditions: LLC tumors in C57BL6 mice, once per day, 21 days; for Tumor weight: CTX intraperitoneal 150 mg·kg^−1, compounds intragastric; for Tumor inhibition rate: from average tumor weight vs model group
[3] = test system: mice with Alzheimer (AD model); assay: Morris water maze detection of behavioral changes in mice with Alzheimer; assay type: in vivo; conditions: for Number of stays / Time of stay: spatial probe test, sixth day
Protocol: Mouse behavioral analysis was performed using a Morris water maze (Ethovision XT monitoring and analysis software, Morris water maze system, from Noldus, Netherlands). The water maze test process was divided into two parts, hidden platform acquisition test for consecutive 5 days, and spatial probe test on the sixth day, the mice were administered according to the test groups and the design doses before each test. The mice were trained 4 times a day, each time the mice were dived in different areas, the water maze was divided into areas 1, 2, 3 and 4 according to the south, east, north and west, and the platform was the 5th area located in the 4th area. […] The hidden platform acquisition test was used to detect the learning ability of mice, while the spatial probe test was used to detect the spatial memory ability of mice.
Using the statistical analysis software SPSS16.0, the escape latent period of the hidden platform acquisition test was analyzed by variance of multiple measures; and the swimming time in each quadrant and the number of crossing target in the spatial probe test were analyzed by one-way analysis of variance. The data were expressed as mean±standard deviation, and the significant level of difference was set as bilateral P=0.05.

[4] = Effects of compounds on body weight of mice in the LLC tumor test; conditions: LLC tumor-bearing mice
[5] = mouse, in vivo

T1 sequence (P14902 whole entry): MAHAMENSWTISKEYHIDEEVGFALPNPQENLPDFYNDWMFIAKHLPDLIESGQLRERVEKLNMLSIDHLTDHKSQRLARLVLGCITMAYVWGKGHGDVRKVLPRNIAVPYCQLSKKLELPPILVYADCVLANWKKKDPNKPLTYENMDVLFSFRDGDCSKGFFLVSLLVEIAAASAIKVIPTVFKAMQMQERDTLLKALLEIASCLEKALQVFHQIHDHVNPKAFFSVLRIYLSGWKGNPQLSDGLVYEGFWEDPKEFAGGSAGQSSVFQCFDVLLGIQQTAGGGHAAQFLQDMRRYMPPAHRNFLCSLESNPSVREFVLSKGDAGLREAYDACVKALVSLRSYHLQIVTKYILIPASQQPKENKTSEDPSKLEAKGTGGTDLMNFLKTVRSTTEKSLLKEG

SMILES: COc1ccc(CC(=O)/N=C(\N)NCCCNc2nonc2/C(=N/O)Nc2ccc(F)c(Br)c2)cc1 [XSD3-093-3]
IC50 [1]: 0.076 µM

SMILES: N/C(=N\S(=O)(=O)CC1CCCCC1)NCCCNc1nonc1/C(=N/O)Nc1ccc(F)c(Br)c1 [XSD3-088]
IC50 [1]: 0.072 µM

SMILES: CC(C)(C)OC(=O)N=C(NCCNc1nonc1/C(=N/O)Nc1ccc(F)c(Br)c1)NC(=O)OC(C)(C)C [Example 3051]
IC50 [1]: 0.023 µM

SMILES: NS(=O)(=O)NCCNc1nonc1C(=Nc1ccc(F)c(Br)c1)NO [INCB024360, reference compound]
T:DC (absorbance value) ([2]; T:DC 10:1): 0.830 ± 0.002
T:DC (absorbance value) ([2]; T:DC 25:1): 0.804 ± 0.004
T:DC (absorbance value) ([2]; T:DC 50:1): 0.799 ± 0.003
Tumor weight (LLC tumors): 0.653 ± 0.178 g
Tumor inhibition rate (LLC tumors): 56.9%
Latent period for searching platform in hidden platform test ([3]; 1st Day): 53.2 ± 2.3 s
Latent period for searching platform in hidden platform test ([3]; 2nd Day): 51.4 ± 4.8 s
Latent period for searching platform in hidden platform test ([3]; 3th Day): 38.6 ± 5.5 s
Number of stays ([3]; 4th Area): 8.4 ± 1.0 times
Time of stay ([3]; 4th Area): 16.2 ± 2.4 s
Latent period for searching platform in hidden platform test ([3]; 4th Day): 28.7 ± 3.9 s
Number of stays ([3]; 5th Area (platform)): 2.1 ± 0.4 times
Time of stay ([3]; 5th Area (platform)): 3.9 ± 0.7 s
Latent period for searching platform in hidden platform test ([3]; 5th Day): 19.9 ± 6.7 s

SMILES: O=P1(N(CCCl)CCCl)NCCCO1 (stereo not shown) [CTX, cyclophosphamide, reference compound]
Tumor weight (LLC tumors): 0.701 ± 0.314 g
Tumor inhibition rate (LLC tumors): 53.7%
Average body weight after test ([4]; after test (21 days of administration)): 19 ± 3.3 g
Average body weight before test ([4]; before test): 22 ± 3.1 g

SMILES: N/C(=N\C(=O)C1CCCC1)NCCCNc1nonc1/C(=N/O)Nc1ccc(F)c(Br)c1 [XSD3-080]
IC50 [1]: 0.087 µM

SMILES: N/C(=N\S(=O)(=O)CC1CCCCC1)NCCNc1nonc1/C(=N/O)Nc1ccc(F)c(Br)c1 [XSD3-089]
IC50 [1]: 0.067 µM

SMILES: N/C(=N\C(=O)Cc1ccccc1)NCCCNc1nonc1/C(=N/O)Nc1ccc(F)c(Br)c1 [XSD3-093]
IC50 [1]: 0.044 µM

SMILES: N/C(=N\C(=O)Cc1ccc(Cl)cc1)NCCCNc1nonc1/C(=N/O)Nc1ccc(F)c(Br)c1 [XSD3-093-1]
IC50 [1]: 0.056 µM

SMILES: N/C(=N\C(=O)CC1CCCCC1)NCCNc1nonc1/C(=N/O)Nc1ccc(F)c(Br)c1 [XSD3-072]
IC50 [1]: 0.502 µM

SMILES: N/C(=N\S(=O)(=O)c1ccccc1)NCCCNc1nonc1/C(=N/O)Nc1ccc(F)c(Br)c1 [XSD3-074]
IC50 [1]: 0.063 µM

SMILES: N/C(=N\C(=O)CC1CCCCC1)NCCCNc1nonc1/C(=N/O)Nc1ccc(F)c(Br)c1 [XSD3-084]
IC50 [1]: 0.16 µM

SMILES: N/C(=N\C(=O)C1CCCCC1)NCCNc1nonc1/C(=N/O)Nc1ccc(F)c(Br)c1 [XSD3-068]
IC50 [1]: 0.539 µM

SMILES: N/C(=N\C(=O)Cc1ccc(F)cc1)NCCCNc1nonc1/C(=N/O)Nc1ccc(F)c(Br)c1 [XSD3-093-2]
IC50 [1]: 0.061 µM

SMILES: N/C(=N\C(=O)Cc1ccccc1)NCCNc1nonc1/C(=N/O)Nc1ccc(F)c(Br)c1 [XSD3-092]
IC50 [1]: 0.399 µM

SMILES: N/C(=N\C(=O)C1CCCCC1)NCCCNc1nonc1/C(=N/O)Nc1ccc(F)c(Br)c1 [XSD3-078]
IC50 [1]: 0.145 µM

Now from value to molecule, other results behind:

IC50 [1]: 0.118 µM
SMILES: N/C(=N\C(=O)C1CC1)NCCNc1nonc1/C(=N/O)Nc1ccc(F)c(Br)c1 [XSD3-065]

IC50 [1]: 0.142 µM
SMILES: N/C(=N\C(=O)C1CCCC1)NCCNc1nonc1/C(=N/O)Nc1ccc(F)c(Br)c1 [XSD3-067]

IC50 [1]: 0.022 µM
SMILES: CNC(=N)NCCNc1nonc1/C(=N/O)Nc1ccc(F)c(Br)c1 [Example 3049]

IC50 [1]: 0.02 µM
SMILES: N=C(N)NCCCNc1nonc1/C(=N/O)Nc1ccc(F)c(Br)c1 [Example 3048]

IC50 [1]: 0.345 µM
SMILES: N/C(=N/C(=O)CC1CCC1)NCCNc1nonc1/C(=N/O)Nc1ccc(F)c(Br)c1 [XSD3-070]

IC50 [1]: 0.345 µM
SMILES: N/C(=N\C(=O)CC1CC1)NCCNc1nonc1/C(=N/O)Nc1ccc(F)c(Br)c1 [XSD3-069]

IC50 [1]: 0.057 µM
SMILES: N=C(NCCNc1nonc1/C(=N/O)Nc1ccc(F)c(Br)c1)NS(=O)(=O)c1ccccc1 [XSD3-058]
T:DC (absorbance value) ([2]; T:DC 10:1): 0.880 ± 0.003
T:DC (absorbance value) ([2]; T:DC 25:1): 0.849 ± 0.002
T:DC (absorbance value) ([2]; T:DC 50:1): 0.831 ± 0.002
Tumor weight (LLC tumors): 0.400 ± 0.112 g
Tumor inhibition rate (LLC tumors): 72.3%
body weight compared with the model group [5]: no significant difference in body weight
Latent period for searching platform in hidden platform test ([3]; 1st Day): 45.3 ± 3.7 s
Latent period for searching platform in hidden platform test ([3]; 2nd Day): 41.3 ± 3.2 s
Latent period for searching platform in hidden platform test ([3]; 3th Day): 25.4 ± 4.6 s
Number of stays ([3]; 4th Area): 13.3 ± 1.8 times
Time of stay ([3]; 4th Area): 25.2 ± 4.2 s
Latent period for searching platform in hidden platform test ([3]; 4th Day): 15.5 ± 4.9 s
Number of stays ([3]; 5th Area (platform)): 3.5 ± 0.9 times
Time of stay ([3]; 5th Area (platform)): 5.9 ± 0.6 s
Latent period for searching platform in hidden platform test ([3]; 5th Day): 7.3 ± 6.1 s

IC50 [1]: 0.101 µM
SMILES: N/C(=N\C(=O)CC1CCC1)NCCCNc1nonc1/C(=N/O)Nc1ccc(F)c(Br)c1 [XSD3-082]

IC50 [1]: 0.037 µM
SMILES: N=C(N)NCCNc1nonc1/C(=N/O)Nc1ccc(F)c(Br)c1 [Example 3047]
T:DC (absorbance value) ([2]; T:DC 10:1): 0.864 ± 0.006^##※
T:DC (absorbance value) ([2]; T:DC 25:1): 0.834 ± 0.004^##※
T:DC (absorbance value) ([2]; T:DC 50:1): 0.825 ± 0.007^##※
Tumor weight (LLC tumors): 0.370 ± 0.209^##※ g
Tumor inhibition rate (LLC tumors): 75.6%
Average body weight before test [5]: 22 ± 3.4 g
Latent period for searching platform in hidden platform test ([3]; 1st Day): 52.3 ± 5.2 s
Latent period for searching platform in hidden platform test ([3]; 2nd Day): 44.0 ± 4.4 s
Latent period for searching platform in hidden platform test ([3]; 3th Day): 22.1 ± 4.5^##※ s
Number of stays ([3]; 4th Area): 13.0 ± 1.5^##※ times
Time of stay ([3]; 4th Area): 25.9 ± 5.2^##※ s
Latent period for searching platform in hidden platform test ([3]; 4th Day): 10.5 ± 5.7^##※ s
Number of stays ([3]; 5th Area (platform)): 3.8 ± 0.6^##※ times
Time of stay ([3]; 5th Area (platform)): 5.9 ± 0.7^##※ s
Latent period for searching platform in hidden platform test ([3]; 5th Day): 5.4 ± 6.0^##※※ s

IC50 [1]: 0.095 µM
SMILES: N/C(=N\C(=O)C1CCC1)NCCCNc1nonc1/C(=N/O)Nc1ccc(F)c(Br)c1 [XSD3-079]
T:DC (absorbance value) ([2]; T:DC 10:1): 0.876 ± 0.004
T:DC (absorbance value) ([2]; T:DC 25:1): 0.850 ± 0.003
T:DC (absorbance value) ([2]; T:DC 50:1): 0.837 ± 0.004
Tumor weight (LLC tumors): 0.384 ± 0.092 g
Tumor inhibition rate (LLC tumors): 73.4%
body weight compared with the model group [5]: no significant difference in body weight
Latent period for searching platform in hidden platform test ([3]; 1st Day): 40.5 ± 5.5 s
Latent period for searching platform in hidden platform test ([3]; 2nd Day): 39.3 ± 44 s
Latent period for searching platform in hidden platform test ([3]; 3th Day): 20.3 ± 4.2 s
Number of stays ([3]; 4th Area): 14.4 ± 1.3 times
Time of stay ([3]; 4th Area): 26.7 ± 3.3 s
Latent period for searching platform in hidden platform test ([3]; 4th Day): 17.7 ± 5.2 s
Number of stays ([3]; 5th Area (platform)): 3.9 ± 0.5 times
Time of stay ([3]; 5th Area (platform)): 5.8 ± 0.7 s
Latent period for searching platform in hidden platform test ([3]; 5th Day): 9.9 ± 5.2 s

IC50 [1]: 0.343 µM
SMILES: CCC(=O)NC(=N)NCCNc1nonc1/C(=N/O)Nc1ccc(F)c(Br)c1 [XSD3-052]

IC50 [1]: 0.132 µM
SMILES: N/C(=N\C(=O)C1CCC1)NCCNc1nonc1/C(=N/O)Nc1ccc(F)c(Br)c1 [XSD3-066]

IC50 [1]: 0.016 µM
SMILES: CC(C)(C)OC(=O)N=C(N)NCCCNc1nonc1/C(=N/O)Nc1ccc(F)c(Br)c1 [Example 3053]

IC50 [1]: 0.089 µM
SMILES: N/C(=N\C(=O)CC1CC1)NCCCNc1nonc1/C(=N/O)Nc1ccc(F)c(Br)c1 [XSD3-081]
